Experimental data taken from BindingDB's records for doi:10.7270/Q2FX7CM7 (n/a, 1993).

Target: DNA gyrase A/A/B/B tetramer (Escherichia coli (strain K12), UniProt P0AES4+P0AES6)
Test: In vitro antibacterial activity was determined as inhibitory concentration causing 50% DNA-gyrase supercoiling inhibition (SCI)

C[C@H]1COc2c(N3CCN(C)CC3)c(F)cc3c(=O)c(C(=O)O)cn1c23 [9-fluoro-3-methyl-10-(4-methylpiperazin-1-yl)-7-oxo-2,3-dihydro-7H-[1,4]oxazino[2,3,4-ij]quinoline-6-carboxylic acid]
IC50: 4.98 µM
